Here are results for one molecule from patent publication US20220340665A1, “INHIBITOR AGAINST EXPRESSION OF IMMUNE CHECKPOINT MOLECULE” (RENASCIENCE INC., priority 2019, published 2022).

Entries after “also recorded” stand apart in the source; their conditions may differ.

Series [1] concerns mouse leukemia cell line (32Dp210). The series can be described thus: PD-L1 expression level by flow cytometry in 32Dp210 cells (Experimental Examples 2 and 3). The series is classed as cell-based. The conditions noted are these: inhibitor 50 μM with rPAI-1 40 nM, 2 days, listed as PAI-1 inhibitor. From the text:
In order to analyze the characteristics of cancer cells highly expressing PAI-1, a rouse leukemia cell line (obtained by transfecting 32D cells, i.e., a myelomonocytic progenitor cell line, with BCR-ABL; referred to below as “32Dp210”) was transfected with PAI-1 to produce cells overexpressing PAI-1 (32d PAI-1 OE). Next, in order to analyze the expression level of PD-L1, which is an ICM, in the cells, the cells were stained with an anti-PD-L1 antibody (clone name: 10F.G92) labeled with Allophycocyanin (APC) as a fluorescent dye, and subjected to flow cytometry. As a comparative control experiment, a 32Dp210 cell line without transfection of PAI-1 (wild-type cells: 32D WT) was analyzed in the same manner for the PD-L1 expression level.
Specifically, artificially produced recombinant PAI-1 (referred to below as “rPAI-1”; 40 nM) or a culture supernatant of the cells overexpressing PAI-1 (32d PAI-1 OE) prepared in Experimental Example 1 (PAI-1 OE sup; containing a high concentration of PAI-1) was added to 5×10^4 cells of a mouse leukemia cell line (32Dp210), and the cells were cultured on a 96-well plate at 37° C., 5% CO2, for 2 days. Next, the PD-L1 expression level was determined by flow cytometry in the same manner as in Experimental Example 1. As a comparative control experiment, the PD-L1 expression level in untreated mouse leukemia cells (control) was measured in the same manner. […]

Series [2] deals with mouse colorectal cancer cell line (MC38). The series can be described thus: PD-L1 expression level by flow cytometry in MC38 cells (Experimental Example 3). The series is classed as cell-based. The conditions noted are these: inhibitor 50 μM with rPAI-1 40 nM, 2 days, listed as PAI-1 inhibitor. On the procedure: (§1) Next, the PD-L1 expression level was determined by flow cytometry in the same manner as in Experimental Example 1.
(§2) Likewise, a mouse colorectal cancer cell line (MC38) and a mouse malignant melanoma cell line (B16F10) were also tested in the same manner, instead of the mouse leukemia cell line (32Dp210).
(In flow cytometry, cells or beads pass a laser one at a time.)

In series [3] the test system is mouse malignant melanoma cell line (B16F10). The series can be described thus: PD-L1 expression level by flow cytometry in B16F10 cells (Experimental Example 3). The series is classed as cell-based. The settings on record: inhibitor 50 μM with rPAI-1 40 nM, 2 days, listed as PAI-1 inhibitor. On the procedure:
as §1, §2

The subject of series [4] is M2 macrophages (CD11b+CD206+). The series can be described thus: PD-L1 expression in M2 macrophages of orally dosed mice (Experimental Example 7). It counts as in vivo, mice (C57BL6). The conditions noted are these: peripheral blood; 10 mg/kg orally once daily, 7 days; vs vehicle. On the procedure: Mice (C57BL6) were orally administered with the PAI-1 inhibitor once daily at 10 mg/kg for a total of 7 days. On the next day of the final administration, the peripheral blood or the spleen was collected from the mice. The spleen was mechanically dispersed through nylon mesh. The peripheral blood and spleen cells were independently hemolyzed with an ammonium chloride solution, and the PD-L1 expression level in M2 macrophages (CD11b^+CD206^+) was determined with a flow cytometer. As a comparative control experiment, the peripheral blood or the spleen was collected in the same manner from a mouse group to which only physiological saline (vehicle) was administered to determine the PD-L1 expression level in M2 macrophages (CD11b^+CD206^+).

Series [5] relates to mouse colorectal cancer cell line (MC38). Put plainly: Size of subcutaneous MC38 tumor mass in mice (Experimental Example 11). The series is classed as in vivo, mice (C57BL6). The conditions noted are these: PAI-1 inhibitor 10 mg/kg orally daily 14 days, anti-PD1 antibody 15 μg i.p. every 3 days, 3 times, 14 and 21 days. From the text:
Mice (C57BL6) were divided into 1) an untreated group (vehicle) (n=15), 2) a single-administration group of anti-PD1 antibody (anti-PD-1 Ab), 3) a single-administration group of PAI-1 inhibitor (PAI-1 inhibitor), and 4) a combination group of anti-PD1 antibody and PAI-1 inhibitor (anti-PD-1 Ab+PAI-1 inhibitor) (n=18 for 2) to 4)). Then, 5×10^5 cells of the mouse colorectal cancer cell line (MC38) were transplanted subcutaneously into each mouse. One week after transplantation, engraftment of more than 5 mm of a tumor mass in the major axis was confirmed. Subsequently, the PAI-1 inhibitor (10 mg/kg) was orally administered once daily to groups 3) and 4) above for a total of 14 consecutive days. For groups 2) and 4), 15 μg of anti-PD1 antibody was intraperitoneally administered every 3 days (3 times in total) from the same day as the administration day of the PAI-1 inhibitor. For the untreated group, physiological saline was orally administered. The size of the tumor mass was measured 2 weeks (14 days) and 3 weeks (21 days) after the transplantation (0 days).

Series [6] has the same test system. Put plainly: MC38 tumor mass in immunodeficient and wild-type mice (Experimental Example 12). The conditions noted are these: 10 mg/kg orally once daily, 14 days, listed as PAI-1 inhibitor. The series is classed as in vivo. On the procedure: To confirm this point, the following experiment was performed. Specifically, 5×10^5 cells of a mouse colorectal cancer cell line (MC38) were subcutaneously transplanted into immunodeficient mice (Rag2/IL-2R-KO) and wild-type mice (WT, for control). The immunodeficient mice lacked the RAG2 gene and the IL-2 receptor γ chain gene, and immune cells (T cells, B cells, NK cells) were not congenitally present in the body. One week later, engraftment of more than 5 mm of a tumor mass in the major axis was confirmed. Subsequently, the PAI-1 inhibitor (10 mg/kg) or physiological saline (vehicle) was orally administered to each mouse once daily for a total of 14 consecutive days.

Another series relates to M2 macrophages. The series can be described thus: Macrophages and M2 macrophages in MC38 tumor mass by flow cytometry (Experimental Example 13). It counts as in vivo, mice (C57BL6). The settings on record: oral administration for one week, vs vehicle. On the procedure: 1) The untreated group and 3) the single-administration group of PAI-1 inhibitor (cancer-bearing mice) of Experimental Example 11, after tumor engraftment, were orally administered with physiological saline (vehicle) or the PAI-1 inhibitor for one week. Thereafter, the tumors were collected, and the M2 macrophages were stained with an anti-CD45 antibody, an anti-CD11b antibody, an anti-F4/80 antibody, and an anti-CD206 antibody, and the percentage of M2 macrophages in the tumor mass was analyzed with a flow cytometer.

In series [7] the test system is cancer-associated fibroblasts (CAF). The series can be described thus: Cancer-associated fibroblasts in MC38 tumor sections (Experimental Example 15). The series is classed as in vivo, mice (C57BL6). The settings on record: oral administration for one week, vs vehicle. From the text: 1) The untreated group and 3) the single-administration group of PAI-1 inhibitor (cancer-bearing mice) of Experimental Example 11, after tumor engraftment, were orally administered with physiological saline (vehicle) or the PAI-1 inhibitor for one week. Thereafter, the tumor was collected, fixed with paraformaldehyde, and then embedded in paraffin to prepare tissue sections. The tissue sections were stained with an anti-SMAcα antibody, and the percentage of cancer-associated fibroblasts (CAF) was observed under a microscope.

The conditions of series [8]: non-clinical and clinical studies (JP2020-088416A); cited from earlier work.

In the case of `O=C(Nc1ccc(Cl)cc1C(=O)[O-])c1cccc(-c2cccc3cccnc23)c1.[Na+]` [Example 68, 5-chloro-2-(((3-(quinolin-8-yl)phenyl)carbonyl)amino)sodium benzoate], the entries for the “PD-L1 expression induction by rPAI-1” value in series [1], in series [2] and in series [3] were “completely inhibited the induction; also recorded: completely suppressed”, “completely inhibited the induction; also recorded: the same results as those of the leukemia cells” and “completely inhibited the induction; also recorded: the same results as those of the leukemia cells”, respectively. In addition, the “PD-L1 expression level in M2 macrophages” value in [4] is listed as “reduction in the PD-L1 expression level”. In addition, in [5], the “size of the tumor mass” value is “significantly regressed; also recorded: tumor regression”. The tumor regression effect entry in [6] (immunodeficient mice (Rag2/IL-2R-KO)) is recorded as “no such an effect was observed; also recorded: not observed”; in series [6] (wild-type mice (WT), 10 mg/kg), “achieved a tumor regression effect; also recorded: observed”. In addition, the “number of macrophages in the tumor” value in the series with M2 macrophages is recorded as “reduced”. The “percentage of M2 macrophages among macrophages” value in the series on M2 macrophages is “reduced”. Moreover, the “percentage of intratumoral infiltration of cancer-associated fibroblasts” value in series [7] is reported as “reduced”. In addition, the “safety by oral administration” value in series [8] is “no safety issues”.
